The text below walks through data of US20150087649A1, “TREATING DISORDERS ASSOCIATED WITH ABERRANT ADRENOCORTICAL CELL BEHAVIOR” (Atterocor, Inc., priority 2013, published 2015).

One test concerns the target T1, human ACAT1 (Homo sapiens, UniProt P35610, Q526R).
T1 construct: expressed in transfected cells
T1 sequence (P35610 1-550 Q526R): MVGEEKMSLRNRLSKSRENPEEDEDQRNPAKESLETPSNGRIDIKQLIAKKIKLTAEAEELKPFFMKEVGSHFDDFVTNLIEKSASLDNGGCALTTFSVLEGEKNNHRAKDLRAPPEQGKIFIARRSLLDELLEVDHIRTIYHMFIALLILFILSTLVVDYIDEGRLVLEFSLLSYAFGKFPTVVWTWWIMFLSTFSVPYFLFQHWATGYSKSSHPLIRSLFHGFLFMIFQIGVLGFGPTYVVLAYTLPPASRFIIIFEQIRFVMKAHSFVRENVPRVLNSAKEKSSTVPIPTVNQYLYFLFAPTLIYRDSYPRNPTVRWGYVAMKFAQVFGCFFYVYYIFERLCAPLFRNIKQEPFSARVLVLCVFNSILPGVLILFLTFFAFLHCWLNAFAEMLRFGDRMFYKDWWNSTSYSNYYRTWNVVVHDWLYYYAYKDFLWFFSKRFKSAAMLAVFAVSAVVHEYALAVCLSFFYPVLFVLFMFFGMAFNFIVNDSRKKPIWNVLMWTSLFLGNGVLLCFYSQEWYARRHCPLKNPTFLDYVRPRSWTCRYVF
In words: Fluorescent cell-based assay measuring esterification of NBD-cholesterol in AC29 cells expressing huACAT1. An excerpt: In the methods described herein, the agent inhibits the ability of huACAT1 to catalyze the esterification of free cholesterol into cholesteryl ester. […] AC29 cells lack endogenous ACAT1 activity and are transfected to express human ACAT1. The assay uses 22-[N-(7-nitrobenz-2-oxa-1,3-diazol-4-yl)amino]-23,24-bisnor-5-cholen-3-ol (NBD-cholesterol), a fluorescent sterol analog in which the NBD moiety replaces the terminal segment of the alkyl tail of cholesterol. […] In a polar environment, NBD-cholesterol is weakly fluorescent. In a nonpolar environment, NBD-cholesterol is strongly fluorescent. The fluorescent property of NBD-cholesterol is used to measure ACAT activity, as cholesterol is a polar lipid and cholesteryl ester is nonpolar. Untransfected AC29 cells or AC29 cells expressing huACAT1 treated with a known ACAT inhibitor can be used to determine background fluorescence due to free-NBD-cholesterol.
(§1) Cells were maintained in monolayer at 37° C. in 5% CO2 in Ham's F-12 medium supplemented with 1% Eagle's vitamins, penicillin (100 units/ml), streptomycin (100 μg/ml), and 10% heat-inactivated fetal bovine serum, and cells were typically grown to 70-90% confluence for all experiments.
(§2) Human ACAT1 activity was assessed using a fluorescent cell-based assay as described in Lada et al. (supra). The assay uses 22-[N-(7-nitrobenz-2-oxa-1,3-diazol-4-yl)amino]-23,24-bisnor-5-cholen-3-ol (NBD-cholesterol), a fluorescent sterol analog in which the NBD moiety replaces the terminal segment of the alkyl tail of cholesterol. […] In a polar environment, NBD-cholesterol is weakly fluorescent. In a nonpolar environment, NBD-cholesterol strongly is strongly fluorescent. The fluorescent property of NBD-cholesterol is used to measure ACAT activity, as cholesterol is a polar lipid and cholesteryl ester is nonpolar. 3×10^5 cells per well were plated on Falcon 96-well culture plates and allowed to recover overnight. Assays were performed with cells that are at least 80% confluent. Media was aspirated and wells were pre-incubated with 100 μL of dilutions of control and test compounds from 1000× stock solutions in DMSO (or other neutral diluent e.g., methanol, ethanol, or water) for 20 minutes. Media was removed and replaced with 100 μL of medium containing the same dilution of compound or vehicle as in the pre-incubation and 1 μg/ml NBD-cholesterol and incubated for 6 hr at 37° C. (Lada et al., supra). […] Parental AC29 cells incubated with NBD-cholesterol or ACAT1-expressing cells incubated with NBD-cholesterol and the […] were used to determine background fluorescence attributable to free NBD-cholesterol. After incubation, medium is removed, and the cells were washed two times with cold balanced salt solution (BSS). […] Cholesteryl ester (CE) fluorescence was calculated by subtracting the background from the total fluorescence, and these values were normalized by cellular protein.

A further test concerns the target T2, human ACAT2 (Homo sapiens, UniProt O75908).
T2 sequence (O75908 1-522): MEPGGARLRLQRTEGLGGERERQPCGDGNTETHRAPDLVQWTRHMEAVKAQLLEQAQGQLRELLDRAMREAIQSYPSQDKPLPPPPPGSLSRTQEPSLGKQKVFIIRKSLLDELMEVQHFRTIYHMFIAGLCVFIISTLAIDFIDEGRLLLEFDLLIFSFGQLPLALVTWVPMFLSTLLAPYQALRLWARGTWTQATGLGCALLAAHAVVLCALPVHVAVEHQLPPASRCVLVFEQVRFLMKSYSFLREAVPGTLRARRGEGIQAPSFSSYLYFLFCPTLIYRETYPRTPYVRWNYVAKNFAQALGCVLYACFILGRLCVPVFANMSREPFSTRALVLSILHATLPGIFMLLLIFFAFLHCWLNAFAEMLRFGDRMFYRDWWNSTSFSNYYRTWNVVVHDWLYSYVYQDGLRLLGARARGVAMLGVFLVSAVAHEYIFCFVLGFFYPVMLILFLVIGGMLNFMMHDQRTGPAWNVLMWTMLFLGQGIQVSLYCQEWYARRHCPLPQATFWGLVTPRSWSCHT
In words: Fluorescent NBD-cholesterol esterification assay in AC29 stable transfectants, Table 2. It counts as cell-based. As to the method:
[The procedure below names another target; the source lists this target under the same test.] as §1, §2

Test [1] deals with adrenocortical carcinoma (ACC). Particulars: cited from earlier work.
A further test concerns adrenocortical cells. Particulars: as reported in the literature; cited from earlier work.
Test [2] relates to H295R cells. In words: Caspase-3/7 activity (Apotox-Glo) in H295R cells with exogenous cholesterol. Particulars: compound at its ACAT1 IC50 concentration, 45 ug/mL exogenous cholesterol, 5 hours. It counts as cell-based, human. As to the method: Commercially-available assay kits may also be employed to measure Caspase 3/7 activity, including for example the Apotox-Glo Assay Kit (Promega). […] H295R cells are plated at 500,000 cells/well in a 12 well plate. After overnight incubation at 37° C., media is removed and replaced with media containing vehicle (DMSO) or one of the ACAT1 inhibitors at its ACAT1 IC50 concentration in the presence of 45 ug/mL exogenous cholesterol. After 5 hours of treatment, cells are harvested, washed and assayed for Caspase-3/7 activity using the Apotox-Glo Assay Kit (Promega).

A further test has as its system H295R. In words: Free and esterified cholesterol in H295R cells with exogenous cholesterol. It counts as cell-based, human. Particulars: compound at its ACAT1 IC50 concentration, 45 μg/ml cholesterol. The method, then:
In this study, H295R were plated at 200,000 cells/well in a 24 well plate. After overnight incubation at 37° C., media was removed and replaced with treatment media (test compound at its ACAT1 IC50 concentrations containing 45 μg/ml cholesterol) or vehicle (DMSO). After treatment of cells for various lengths of time (minutes to hours), media was removed and cells are washed twice with cold PBS. 200 ul of hexane/isopropanol (3:2) was then added to each well, the plate was rocked at room temperature for 1 hour, and the supernatant was transferred to glass vials and allowed to air dry. Residual lipids were resuspended and total cholesterol and free cholesterol were measured using the Cholesterol Fluorometric Assay Kit (Cayman Chemical). Cholesterol ester was determined by subtracting free cholesterol from total cholesterol.

Test [3] has as its system H295R cells. In words: XBP-1 splicing (unfolded protein response) in H295R cells with exogenous cholesterol. It counts as cell-based, human. Particulars: compound at its ACAT1 IC50 concentration, 45 ug/mL exogenous cholesterol, 5 hours. As to the method:
Treatment of H295R cells by an agent can result in chronic disruption of cholesterol homeostasis that may lead to activation of the UPR and/or triggering of the programmed cell death response and the induction apoptotic markers.
H295R adrenocortical cells are plated at 500,000 cells/well in a 12-well culture plate as described in Example 8. […]. After 5 hours of treatment, RNA is extracted using the Qiagen RNEasy® Plus kit and 1 μg RNA is reverse transcribed using Applied Biosystems® High-Capacity cDNA Reverse Transcription Kit. XBP-1 splicing product is amplified by PCR using primer pairs that allow detection of the activated isoform (5′-[…]-3′ (SEQ ID NO:15) and 5′-[…]-3′ (SEQ ID NO:16)) under the following conditions: 1) 95° C. for 30 sec, 2) 95° C. for 15 sec; 3) 50° C. for 15 sec, 4) 68° C. for 30 sec. […] Amplification steps 2 through 4 are repeated for 30 cycles. PCR product is resolved on a 5% agarose gel. DTT treated cells serve as a positive control for XBP-1 splicing. An increase in the XBP-1 splice variant expression of greater than 20% is considered significant.

[4] abbreviates: Table 2, first IC50 column, AC29 cells expressing huACAT1, 1 μg/ml NBD-cholesterol, 6 hr, read-out: IC50 huACAT1.
Setting [5] is: Table 2, second IC50 column (head repeats huACAT1), AC29 transfectants, NBD-cholesterol, read-out: IC50 huACAT1.
Setting [6] is: Table 3, determined as described in Example 1, read-out: ACAT1 IC50.

Read-outs that look alike come from different tables or passages of the source.

For the molecule `CCCCC[C@H]1C=C[C@@H](CCCCC)SC1[C@@H](C)Nc1c(SC)cc(C)nc1SC` (some centres unmarked) [Compound 6], the IC50 – broadly, the concentration at which inhibition is half-maximal – on human ACAT1 (setting [4]) came to 1.8 nM; on human ACAT2 (setting [5]), 18 nM.

Take `Clc1ccc(C(c2ccccc2Cl)C(Cl)Cl)cc1` (centres unmarked) [mitotane]: the “delay of disease progression, average” value in test [1] (ACC patients that derive a therapeutic benefit) is listed as “five”. Besides, in test [1] (ACC patients), the “share of patients with increased progression-free survival” value is recorded as “one-quarter to one-third”.

Consider `CCCCCCCCC(C)(C)C(=O)Nc1c(OC)cc(OC)cc1OC` [Compound 7], for which the IC50 at human ACAT1 (setting [4]) was determined as 540 nM.

Consider `CCCCCCCCCCCCn1nnc(C(C(=O)Nc2c(C(C)C)cccc2C(C)C)c2ccccc2)n1` (centres unmarked) [Compound 3, 2H-Tetrazole-5-acetamide, N-[2,6-bis(1-methylethyl)phenyl]-2-dodecyl-a-phenyl-], for which the Adrenal activity result in the test on adrenocortical cells is reported as “Adrenal acting”. The IC50 on human ACAT1 (setting [4]) was determined as 2000 nM; on human ACAT1 (setting [6]), 11 nM; at human ACAT2 (setting [5]), 510 nM. Moreover, in the test with H295R cells [2], the “Caspase-3/7 activity compared to vehicle” value was “significant increases”. Further, in the test with H295R, the “free cholesterol compared to vehicle” value is listed as “increase in free cholesterol”. The “splicing of XBP-1 compared to vehicle” value in the test with H295R cells [3] is recorded as “significant splicing of XBP-1”.

`Cc1ccc2oc(CN(Cc3ccccc3)C(=O)Nc3c(F)cc(F)cc3F)c(-c3ccc(Cl)cc3)c2c1` [Compound 5]: in the test with adrenocortical cells, the Adrenal activity entry is given as “Adrenal acting”. Besides, the IC50 stood at 6 nM on human ACAT1 (setting [4]), 10 nM on human ACAT1 (setting [6]) and 80 nM at human ACAT2 (setting [5]). In the test on H295R cells [2], the “Caspase-3/7 activity compared to vehicle” value is recorded as “significant increases”. In addition, the “free cholesterol compared to vehicle” value in the test with H295R was “increase in free cholesterol”. Further, in the test with H295R cells [3], the “splicing of XBP-1 compared to vehicle” value was “significant splicing of XBP-1”.

In the case of `CC(C)c1cccc(C(C)C)c1OC(=O)NS(=O)(=O)Oc1c(C(C)C)cccc1C(C)C` [Compound 1], the IC50 against human ACAT1 was 2400 nM; against human ACAT2, 440 nM.

As for `CCCCCCCCCCCCCOC(=O)C(C(=O)Nc1c(C(C)C)cccc1C(C)C)c1ccccc1` (centres unmarked) [Compound 2], the IC50 at human ACAT1 (setting [4]) came to 20 nM; at human ACAT2 (setting [5]) it was 21 nM.
